Values after ≈ are worked out from the molar mass of the structure shown.
How the values were obtained:
[1] = test system: Micrococcus luteus ATCC 10240; experiment: Broth microdilution MIC/MBC; type: cell-based; details: for MBC: ATCC10240; for MIC: ATCC10240, read-out: MIC
Description: (§1) In vitro antimicrobial activity assays - Methodology
(§2) The examined compounds 1 - 24 were screened in vitro for antibacterial and antifungal activities using the broth microdilution method according to procedure reported earlier by our research group and European Committee on Antimicrobial Susceptibility Testing (EUCAST) and Clinical and Laboratory Standards Institute (CLSI) guidelines against a panel of reference and clinical or saprophytic strains of microorganisms, in-cluding Gram-positive bacteria, Staphylococcus aureus ATCC 43300 (Methicillin Resistant S. aureus – MRSA), Staphylococcus aureus ATCC 29213 (Methicillin Susceptible S. aureus – MSSA), Staphylococcus epidermidis ATCC 12228, Enterococcus faecalis ATCC 29212, Micro-coccus luteus ATCC 10240, Bacillus subtilis ATCC 6633 and Bacillus cereus ATCC 10876), Gram-negative bacteria (Bordetella bronchiseptica ATCC 4617, Escherichia coli ATCC 25922, Klebsiella pneumoniae ATCC 13883, Proteus mirabilis ATCC 12453, Salmonella typhimurium ATCC 14028 and Pseudomonas aeruginosa ATCC 9027) and fungi belonging to yeasts (Can-dida albicans ATCC 10231, Candida albicans ATCC 2091, Candida parapsilosis ATCC 22019, Candida glabrata ATCC 90030 and Candida krusei ATCC 14243). The microorganisms be-longing to ATCC came from American Type Culture Collection, routinely used for the evaluation of antimicrobials. […]
(§3) Samples containing examined compounds were dissolved in dimethyl sulfoxide (DMSO). […]
(§4) Subsequently, the MIC (Minimal Inhibitory Concentration) of the compounds was ex-amined by the microdilution broth method, using their two-fold dilutions in Mueller- […]
(§5) Hinton broth or (for bacteria) and RPMI 1640 broth with MOPS (for fungi) prepared in 96-well polystyrene plates. Final concentrations of the compounds ranged from 1000 to 0.488 µg/ml. Microbial suspensions were prepared in 0.85% NaCl with an optical density of 0.5 McFarland standard. Next each bacterial or fungal suspension was added per each well containing broth and various concentrations of the examined compounds. After incuba-

[2] = test system: Proteus mirabilis ATCC 12453; experiment: Broth microdilution MIC/MBC; type: cell-based; details: ATCC12453
Description: as §1, §2, §3, §4, §5

[3] = test system: Pseudomonas aeruginosa ATCC 9027; experiment: Broth microdilution MIC/MBC; type: cell-based; details: ATCC9027
Description: as §1, §2, §3, §4, §5

[4] = test system: Salmonella typhimurium ATCC 14028; experiment: Broth microdilution MIC/MBC; type: cell-based; details: Salmonella enterica
Description: as §1, §2, §3, §4, §5

[5] = test system: Staphylococcus aureus ATCC 29213; experiment: Broth microdilution MIC/MBC; type: cell-based
Description: as §1, §2, §3, §4, §5

[6] = test system: Staphylococcus aureus ATCC 43300; experiment: Broth microdilution MIC/MBC; type: cell-based; details: Staphylococcus aureus ATCC 43300 (MRSA)
Description: as §1, §2, §3, §4, §5

[7] = test system: Staphylococcus epidermidis ATCC 12228; experiment: Broth microdilution MIC/MBC; type: cell-based; details: for MIC: ATCC12228, read-out: MIC
Description: as §1, §2, §3, §4, §5

[8] = test system: Bacillus subtilis ATCC 6633; experiment: Broth microdilution MIC/MBC; type: cell-based; details: for MIC: ATCC6633, read-out: MIC
Description: Detailed procedures are presented in the Supplementary Materials. […]
as §1
as §2, with “antimicrobials. All the used microbial cultures were first subcultured on nu-trient agar or Sabouraud agar at 35°C for 18-24 h or 30°C for 24-48 h for bacteria and fungi,” for “antimicrobials.”
(§6) The surface of Mueller-Hinton agar (for bacteria) and RPMI 1640 with MOPS (for fungi) were inoculated with the suspensions of bacterial or fungal species. Microbial suspensions were prepared in sterile saline with an optical density of McFarland standard scale 0.5.
(§7) Samples containing examined compounds were dissolved in dimethyl sulfoxide (DMSO).
(§8) Furthermore, bacterial and fungal suspensions were put onto Petri dishes with solid me-dia containing 2 mg/mL of the tested compounds followed incubation at 37°C for 24h and 30°C for 48h for bacteria and fungi, respectively. The inhibition of microbial growth was judged by comparison with a control culture prepared without any sample tested. Ciprof-loxacin, vancomycin, nitrofurantoin, cefuroxime, ampicillin or nystatin (Sigma) were used as a reference antibacterial or antifungal compounds, respectively.
as §4, §5

[9] = test system: Bacillus cereus ATCC 10876; experiment: Broth microdilution MIC/MBC; type: cell-based; details: for MBC: ATCC10876; for MIC: ATCC10876, read-out: MIC
Description: as §1
as §2, with “antimicrobials. All the used microbial cultures were first subcultured on nu-trient agar or Sabouraud agar at 35°C for 18-24 h or 30°C for 24-48 h for bacteria and fungi,” for “antimicrobials.”
as §6, §7, §8, §4, §5

[10] = test system: Bordetella bronchiseptica ATCC 4617; experiment: Broth microdilution MIC/MBC; type: cell-based
Description: as §1
as §2, with “antimicrobials. All the used microbial cultures were first subcultured on nu-trient agar or Sabouraud agar at 35°C for 18-24 h or 30°C for 24-48 h for bacteria and fungi,” for “antimicrobials.”
as §6, §7, §8, §4, §5

[11] = test system: Enterococcus faecalis ATCC 29212; experiment: Broth microdilution MIC/MBC; type: cell-based; details: for MIC: ATCC29212, read-out: MIC
Description: as §1
as §2, with “antimicrobials. All the used microbial cultures were first subcultured on nu-trient agar or Sabouraud agar at 35°C for 18-24 h or 30°C for 24-48 h for bacteria and fungi,” for “antimicrobials.”
as §6, §7, §8, §4, §5

[12] = test system: Escherichia coli ATCC 25922; experiment: Broth microdilution MIC/MBC; type: cell-based; details: ATCC25922
Description: as §1
as §2, with “antimicrobials. All the used microbial cultures were first subcultured on nu-trient agar or Sabouraud agar at 35°C for 18-24 h or 30°C for 24-48 h for bacteria and fungi,” for “antimicrobials.”
as §6, §7, §8, §4, §5

[13] = test system: Klebsiella pneumoniae ATCC 13883; experiment: Broth microdilution MIC/MBC; type: cell-based; details: ATCC13883
Description: as §1
as §2, with “antimicrobials. All the used microbial cultures were first subcultured on nu-trient agar or Sabouraud agar at 35°C for 18-24 h or 30°C for 24-48 h for bacteria and fungi,” for “antimicrobials.”
as §6, §7, §8, §4, §5

[14] = test system: Candida albicans ATCC 10231; experiment: Broth microdilution MIC/MFC; type: cell-based; details: for MIC: ATCC10231, read-out: MIC
Description: as §1
as §2, with “antimicrobials. All the used microbial cultures were first subcultured on nu-trient agar or Sabouraud agar at 35°C for 18-24 h or 30°C for 24-48 h for bacteria and fungi,” for “antimicrobials.”
as §6, §7, §8, §4, §5

[15] = test system: Candida albicans ATCC 2091; experiment: Broth microdilution MIC/MFC; type: cell-based; details: ATCC2091, read-out: MIC
Description: as §1
as §2, with “antimicrobials. All the used microbial cultures were first subcultured on nu-trient agar or Sabouraud agar at 35°C for 18-24 h or 30°C for 24-48 h for bacteria and fungi,” for “antimicrobials.”
as §6, §7, §8, §4, §5

[16] = test system: Candida glabrata ATCC 90030; experiment: Broth microdilution MIC/MFC; type: cell-based; details: Nakaseomyces glabratus, ATCC90030, read-out: MIC
Description: as §1
as §2, with “antimicrobials. All the used microbial cultures were first subcultured on nu-trient agar or Sabouraud agar at 35°C for 18-24 h or 30°C for 24-48 h for bacteria and fungi,” for “antimicrobials.”
as §6, §7, §8, §4, §5

[17] = test system: Candida krusei ATCC 14243; experiment: Broth microdilution MIC/MFC; type: cell-based; details: Pichia kudriavzevii, ATCC14243, read-out: MIC
Description: as §1
as §2, with “antimicrobials. All the used microbial cultures were first subcultured on nu-trient agar or Sabouraud agar at 35°C for 18-24 h or 30°C for 24-48 h for bacteria and fungi,” for “antimicrobials.”
as §6, §7, §8, §4, §5

[18] = test system: Candida parapsilosis ATCC 22019; experiment: Broth microdilution MIC/MFC; type: cell-based; details: Lodderomyces parapsilosis, ATCC22019, read-out: MIC
Description: as §1
as §2, with “antimicrobials. All the used microbial cultures were first subcultured on nu-trient agar or Sabouraud agar at 35°C for 18-24 h or 30°C for 24-48 h for bacteria and fungi,” for “antimicrobials.”
as §6, §7, §8, §4, §5

[19] = test system: reference Gram-positive bacteria; experiment: Broth microdilution, summary over the Gram-positive panel; type: cell-based; details: read-out: MIC
Description: as §1, §2, §3, §4, §5

Gram-negative bacteria = experiment: Broth microdilution, summary over the Gram-negative panel; type: cell-based
Description: as §1
as §2, with “antimicrobials. All the used microbial cultures were first subcultured on nu-trient agar or Sabouraud agar at 35°C for 18-24 h or 30°C for 24-48 h for bacteria and fungi,” for “antimicrobials.”
as §6, §7, §8, §4, §5

| Structure (SMILES) | MBC/MIC [1] | MBC [1] [µg/mL] | MIC [1] [µg/mL] | MIC [2] [µg/mL] | MIC [3] [µg/mL] | MIC [4] [µg/mL] | MIC ([5]; ATCC29213) [µg/mL] | MIC [6] [µg/mL] | MIC [7] [µg/mL] | MIC [8] [µg/mL] | MBC/MIC [9] | MBC [9] [µg/mL] | MIC [9] [µg/mL] | MIC ([10]; ATCC4617) [µg/mL] | MIC [11] [µg/mL] | MIC [12] [µg/mL] | MIC [13] [µg/mL] | MIC [14] [µg/mL] | MIC [15] [µg/mL] | MIC [16] [µg/mL] | further results |
| --- | --- | --- | --- | --- | --- | --- | --- | --- | --- | --- | --- | --- | --- | --- | --- | --- | --- | --- | --- | --- | --- |
| O=C(N/N=C/c1ccc(O)c(Br)c1)c1ccc(O)cc1O [Compound 11, N-[(3-bromo-4-hydroxyphenyl)methylidene]-2,4-dihydroxybenzohydrazide] | > 8 | > 1000 | 125 (≈ 356 µM) | > 1000 | > 1000 | > 1000 | 250 (≈ 712 µM) | 500 (≈ 1420 µM) | 500 (≈ 1420 µM) | 500 (≈ 1420 µM) | > 4 | > 1000 | 250 (≈ 712 µM) | > 1000 | 500 (≈ 1420 µM) | > 1000 | > 1000 | > 1000 | > 1000 | > 1000 | MBC/MIC [5]: > 4; MBC ([5]; ATCC29213): > 1000 µg/mL; MBC [6]: 1000 µg/mL (≈ 2850 µM); MBC/MIC [6]: 2; MBC/MIC [7]: 2; MBC ([7]; ATCC12228): 1000 µg/mL (≈ 2850 µM); MBC/MIC [8]: > 2; MBC ([8]; ATCC6633): > 1000 µg/mL; MBC/MIC [11]: > 2; MBC ([11]; ATCC29212, read-out: MBC): > 1000 µg/mL; MIC [17]: > 1000 µg/mL; MIC [18]: > 1000 µg/mL; MIC [19]: 15.6 to 1000 µg/mL (≈ 44.5 to 2850 µM); melting point: 232 °C |
| CCOc1cc(/C=N/NC(=O)c2ccc(O)cc2O)ccc1OC [Compound 14, N-[(3-ethoxy-4-methoxyphenyl)methylidene]-2,4-dihydroxybenzohydrazide] | > 8 | > 1000 | 125 (≈ 378 µM) | > 1000 | > 1000 | > 1000 | > 1000 | > 1000 | > 1000 | > 1000 | > 2 | > 1000 | 500 (≈ 1510 µM) | 1000 (≈ 3030 µM) | > 1000 | > 1000 | > 1000 | 500 (≈ 1510 µM) | > 1000 | > 1000 | MBC/MIC [10]: 1; MBC ([10]; ATCC4617): 1000 µg/mL (≈ 3030 µM); MFC/MIC [14]: > 2; MFC ([14]; ATCC10231, read-out: MFC): > 1000 µg/mL; MIC [17]: > 1000 µg/mL; MIC [18]: > 1000 µg/mL; MBC (Gram-negative bacteria): > 1000 µg/mL; MIC (Gram-negative bacteria): 500 to 1000 µg/mL (≈ 1510 to 3030 µM); melting point: 230 °C |
